Test systems include SNB-75 CNS; COLO 205 colon; UACC-257 melanoma; TK-10 renal; SF-295 CNS; OVCAR-8 ovarian; NCI-H460 lung; OVCAR-4 ovarian; CAKI-1 renal; SK-OV-3 ovarian.
What all share (experiment): inhibition of tumour cell growth, NCI panel, 48 h

Drawing on PubChem BioAssay (NCI), this text covers TGI and GI50 for 15 molecules.

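How tested: cells in 96-well plates exposed to compound for 48 hours at five concentrations. GI50 marks 50% less growth. At the TGI there is no net growth.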 Where only a bound is given, the exact number is not on record here.

Take `Cc1cccc2cc3c(ccc4ccccc43)c[n+]12`: the TGI in the experiment on SNB-75 CNS is 21.8 µM; in the experiment on COLO 205 colon, 31.6 µM; with UACC-257 melanoma, 37.9 µM; in the experiment on TK-10 renal, over 100 µM; in the experiment on SF-295 CNS, 41.5 µM; in the experiment with OVCAR-8 ovarian it was over 100 µM. In addition, in the experiment on NCI-H460 lung, the TGI worked out at 93.7 µM.

For `Nc1ccc(-c2cssc2=S)cc1`, the TGI in the experiment on OVCAR-4 ovarian, in the experiment with COLO 205 colon, in the experiment on CAKI-1 renal, in the experiment on UACC-257 melanoma, with TK-10 renal and in the experiment on SF-295 CNS was over 100 µM each time. Besides, the TGI with SK-OV-3 ovarian, in the experiment with OVCAR-8 ovarian and with NCI-H460 lung was over 100 µM each time.

For the molecule `CN(C)c1nc(N(C)C)nc(N(C)CN(C)c2ccc(Cl)cc2)n1`, the TGI with OVCAR-4 ovarian, with SNB-75 CNS, in the experiment with UACC-257 melanoma, in the experiment with TK-10 renal, in the experiment with SF-295 CNS and in the experiment on SK-OV-3 ovarian was over 100 µM throughout. For the same molecule, the TGI in the experiment on OVCAR-8 ovarian and in the experiment on NCI-H460 lung was over 100 µM in each case.

In the case of `O=c1cc(-c2ccc(O)cc2)n(C2CC2)c2ccccc12`, the TGI with COLO 205 colon turned out to be 15.1 µM; in the experiment on CAKI-1 renal it was 20.8 µM; in the experiment on UACC-257 melanoma, 25.8 µM; in the experiment on SF-295 CNS, 11.9 µM; in the experiment with SK-OV-3 ovarian, 42.6 µM; in the experiment on OVCAR-8 ovarian it was 47.1 µM. Also, the TGI in the experiment on NCI-H460 lung turned out to be 17.3 µM.

Take `O=C(O)c1cc(=O)[nH]c(SCc2ccccc2)n1`: the TGI in the experiment with OVCAR-4 ovarian, in the experiment on SNB-75 CNS, in the experiment with CAKI-1 renal, in the experiment with UACC-257 melanoma, with TK-10 renal and in the experiment on SF-295 CNS was over 100 µM throughout. The TGI in the experiment with OVCAR-8 ovarian and with NCI-H460 lung was over 100 µM each time.

Take `Cc1nc2c(n1C)C(=O)c1nc(CBr)[nH]c(=O)c1C2=O`: the TGI in the experiment with COLO 205 colon is over 100 µM; with TK-10 renal, over 100 µM; with SF-295 CNS, 5.27 µM; in the experiment on SK-OV-3 ovarian, over 100 µM; in the experiment on OVCAR-8 ovarian it was over 100 µM; with NCI-H460 lung it was over 100 µM.

For `C=CCc1cc(-c2cc(CC=C)c(O)c(CNC)c2)cc(CNC)c1O`, the TGI in the experiment with OVCAR-4 ovarian was 30.4 µM; with SNB-75 CNS it was 24.3 µM; with COLO 205 colon, 33.5 µM; with UACC-257 melanoma, 29.9 µM; with TK-10 renal, 32.1 µM; in the experiment on SF-295 CNS, 31 µM. In addition, the TGI in the experiment with OVCAR-8 ovarian was 32.5 µM; with NCI-H460 lung it was 30.1 µM.

Regarding `CO/C=C(/C(=O)OC)c1ccccc1[C@@H]1CC1c1cccc(F)c1` (some centres not stated), the TGI in the experiment with OVCAR-4 ovarian was 96.7 µM; in the experiment on COLO 205 colon, 30.3 µM; in the experiment on CAKI-1 renal it was 70.4 µM; in the experiment with UACC-257 melanoma, 52.4 µM; in the experiment on TK-10 renal, over 100 µM; in the experiment on SF-295 CNS, over 100 µM. Besides, the results for the TGI in the experiment with SK-OV-3 ovarian, in the experiment on OVCAR-8 ovarian and in the experiment on NCI-H460 lung were 79.7 µM, over 100 µM and over 100 µM, respectively.

Take `CSc1nc(NC2OCC(OC(C)=O)C(OC(C)=O)C2OC(C)=O)c(N=C(C)C(C)=O)c(=O)[nH]1` (configuration not stated): the TGI in the experiment on OVCAR-4 ovarian, with SNB-75 CNS, in the experiment on COLO 205 colon, in the experiment on CAKI-1 renal, in the experiment with UACC-257 melanoma and in the experiment with TK-10 renal was over 100 µM throughout. Besides, the TGI with SF-295 CNS, in the experiment with OVCAR-8 ovarian and in the experiment with NCI-H460 lung was over 100 µM each time.

`COc1ccc(C2CC(c3cccc(Nc4ccncc4)c3)=NN2c2ccc(Cl)cc2)cc1` (configuration not stated): the GI50 in the experiment on OVCAR-4 ovarian was 1.58 µM; in the experiment on SNB-75 CNS, 1.41 µM; in the experiment on COLO 205 colon, 1.78 µM; in the experiment with CAKI-1 renal, 1.32 µM; with UACC-257 melanoma, 1.95 µM; with TK-10 renal, 1.82 µM. Moreover, the GI50 in the experiment on SF-295 CNS was 1.85 µM; with SK-OV-3 ovarian, 2.19 µM; with NCI-H460 lung it was 1.81 µM. The TGI in the experiment on OVCAR-4 ovarian is 3.06 µM; in the experiment on SNB-75 CNS it was 3.01 µM; in the experiment on COLO 205 colon it was 3.76 µM; with CAKI-1 renal, 2.64 µM; with UACC-257 melanoma, 3.87 µM; in the experiment with TK-10 renal, 3.5 µM. Moreover, the values for the TGI in the experiment on SF-295 CNS, with SK-OV-3 ovarian and in the experiment on NCI-H460 lung were 3.3 µM, 5.79 µM and 3.37 µM, respectively.

For `N#Cc1c(NC(=S)Nc2ccc(Cl)cc2)sc2c1CCCC2`, the TGI in the experiment with OVCAR-4 ovarian, with SNB-75 CNS, in the experiment on COLO 205 colon, with CAKI-1 renal, in the experiment with UACC-257 melanoma and with TK-10 renal was over 100 µM in each case. For the same molecule, the TGI with SF-295 CNS and in the experiment with OVCAR-8 ovarian was over 100 µM in each case.

As for `CC(C)(C)OC(=O)NCC(=O)NC1c2ccsc2/C(=N/O)[C@H]1O` (some centres not stated), the TGI in the experiment with OVCAR-4 ovarian, in the experiment on COLO 205 colon, in the experiment with CAKI-1 renal, in the experiment with UACC-257 melanoma, with TK-10 renal and in the experiment on SF-295 CNS was over 100 µM throughout. Moreover, the TGI in the experiment on SK-OV-3 ovarian, in the experiment on OVCAR-8 ovarian and in the experiment with NCI-H460 lung was over 100 µM throughout.

For `CC(=O)Oc1c(C)c2c(O)c3c1C1=C(OCOC1=C(C)C3=O)/C(C)=C\C(C)(O)C(O)C(C)C(O)C1C(=O)OC(C(C)C1O)C(C)(O)/C=C/C=C(C)C(=O)N2` (configuration not stated), the TGI is over 100 µM with SNB-75 CNS; over 100 µM with COLO 205 colon; 64.5 µM in the experiment on CAKI-1 renal; over 100 µM in the experiment with UACC-257 melanoma; over 100 µM with SF-295 CNS; over 100 µM with SK-OV-3 ovarian. Besides, the TGI with OVCAR-8 ovarian and in the experiment on NCI-H460 lung was over 100 µM throughout.

For `N#Cc1c2c(c(Nc3cccc(C(F)(F)F)c3)n3c1nc1ccccc13)CCC2`, the TGI with OVCAR-4 ovarian, with SNB-75 CNS, with COLO 205 colon, in the experiment with CAKI-1 renal, in the experiment on UACC-257 melanoma and in the experiment with TK-10 renal was over 100 µM each time. In addition, the TGI in the experiment with SF-295 CNS, in the experiment on SK-OV-3 ovarian and in the experiment with OVCAR-8 ovarian was over 100 µM each time.

`CCN1C=C/C(=C\C=C/c2cc[n+](CC)c3ccccc23)c2ccccc21`: the TGI with OVCAR-4 ovarian is 16.9 µM; with SNB-75 CNS it was 7.57 µM; with COLO 205 colon, 17 µM; in the experiment with UACC-257 melanoma it was 9.76 µM; with TK-10 renal, 28.1 µM; in the experiment with SF-295 CNS it was 12.5 µM. Further, the figures for the TGI in the experiment with SK-OV-3 ovarian, in the experiment on OVCAR-8 ovarian and in the experiment on NCI-H460 lung were 15.1 µM, 17.1 µM and 11 µM, respectively.
